Assays:
[1] = system: osteoarthritis of the knee; experiment: Second Phase 2 study: WOMAC difficulty performing daily activities (functional ability) subscale score; format: in vivo, human
Text: This is a Phase 2, multicenter, randomized, double blind (within dose), Ibuprofen-placebo controlled, parallel group, dose range finding study to evaluate the efficacy, safety, and PK of 2-(diethylamino)ethyl 2-(4-isobutylphenyl)propionate spray in adult subjects with clinically symptomatic OA of the knee. For subjects with bilateral knee pain, both knees will be treated, but the most symptomatic knee (ie, the most painful knee as measured by the Western Ontario and McMaster University Osteoarthritis Index [WOMAC® 3.1] pain subscale score at Screening) will be designated as the target knee for efficacy analyses. For subjects with unilateral knee pain, only the symptomatic (target) knee will be treated.
The VAS version of the WOMAC will be used for the Primary and Secondary Efficacy Endpoints. Efficacy endpoints will be assessed at Screening and Baseline (Day 1) and at the Week 2, Week 4, Week 8, and Week 12/EOS visits.
4.9.2. Secondary Efficacy Endpoints: • 1. Change from Baseline in the WOMAC (VAS) pain subscale score for the target knee at 2, 8, and 12 weeks of treatment; • 2. Change from Baseline in the WOMAC (VAS) stiffness subscale scores for the target knee and WOMAC (VAS) functional ability subscale scores at 2, 4, 8, and 12 weeks of treatment; • 3. Change from Baseline in the overall WOMAC (VAS) score at 2, 4, 8, and 12 weeks of treatment; • 4. Subject's global assessment of disease status of the target knee at 2, 4, 8, and 12 weeks of treatment; • 5. Subject's global assessment of response to therapy of the target knee at 2, 4, 8, and 12 weeks of treatment; • 6. Amount of rescue medication (acetaminophen) consumed per day for target knee pain.
The Secondary Efficacy Endpoints, change from Baseline in the WOMAC subscale scores for pain, stiffness, and functional ability, and overall WOMAC score at 2, 4, 8, and 12 weeks of treatment, will be analyzed using the same methods as for the Primary Efficacy Endpoint.

[2] = system: osteoarthritis of the knee; experiment: Second Phase 2 study: Subject's pain Assessment Scores (SPA); format: in vivo, human; conditions: first 130 subjects
Procedure: Subjects will record the following information in a Daily Diary starting at Screening: the amount of knee pain in the target knee while walking during the preceding 24 hours (using a 100 mm visual analog scale [VAS]), the times and number of sprays for each administration of study medication, the times when the subject washes his/her knees and/or takes a shower, the number of tablets of rescue medication taken that day and the times taken, the reason for taking the rescue medication (e.g., knee pain, headache, low back pain), any other concomitant medications taken that day, and any AEs occurring that day.

[3] = 17.5 mg/knee BID, Week 12, first 130 subjects
[4] = Week 12, 4.375 mg/knee BID (n = 23), first 130 subjects
[5] = Week 12, 8.75 mg/knee BID (n = 24), first 130 subjects
[6] = Week 12, 17.5 mg/knee BID (n = 19), first 130 subjects
[7] = all subjects, 4.375 mg/knee BID, n = 49, Week 12
[8] = all subjects, 8.75 mg/knee BID, n = 54, Week 12
[9] = all subjects, 17.5 mg/knee BID, n = 52, Week 12
[10] = Week 12, 4.375 mg/knee BID (n = 23)
[11] = Week 12, 8.75 mg/knee BID (n = 24)

CCN(CC)CCOC(=O)C(C)c1ccc(CC(C)C)cc1 (stereo not drawn) [2-(diethylamino)ethyl 2-(4-isobutylphenyl)propionate]
WOMAC functional ability, difference from oral ibuprofen [1, 3]: −15.6
WOMAC functional ability, difference from placebo [1, 3]: −19.1
WOMAC Difficulty Performing Daily Activities Subscale Score, Day 1, Avg. ([1]; Avg. of all patients (blinded), Low Dose (2 spray/knee, 8.75 mg/knee) Cohort, Day 1): 60.4
WOMAC Difficulty Performing Daily Activities Subscale Score, Follow-up, Avg. ([1]; Avg. of all patients (blinded), Low Dose (2 spray/knee, 8.75 mg/knee) Cohort, Follow-up): 40.1
WOMAC Difficulty Performing Daily Activities Subscale Score, Week 2, Avg. ([1]; Avg. of all patients (blinded), Low Dose (2 spray/knee, 8.75 mg/knee) Cohort, Week 2): 49.8
WOMAC Difficulty Performing Daily Activities Subscale Score, Week 4, Avg. ([1]; Avg. of all patients (blinded), Low Dose (2 spray/knee, 8.75 mg/knee) Cohort, Week 4): 44.0
WOMAC Difficulty Performing Daily Activities Subscale Score, Week 8, Avg. ([1]; Avg. of all patients (blinded), Low Dose (2 spray/knee, 8.75 mg/knee) Cohort, Week 8): 41.1
WOMAC Difficulty Performing Daily Activities Subscale Score, Week 12, Avg. ([1]; Avg. of all patients (blinded), Low Dose (2 spray/knee, 8.75 mg/knee) Cohort, Week 12): 39.8
WOMAC Difficulty Performing Daily Activities Subscale Scores, Baseline (LS Mean) ([1]; 4.375 mg/knee BID (n = 23), first 130 subjects): 60.2 mm
WOMAC Difficulty Performing Daily Activities Subscale Scores, Baseline (LS Mean) ([1]; 8.75 mg/knee BID (n = 24), first 130 subjects): 61.6 mm
WOMAC Difficulty Performing Daily Activities Subscale Scores, Baseline (LS Mean) ([1]; 17.5 mg/knee BID (n = 19), first 130 subjects): 63.9 mm
WOMAC Difficulty Performing Daily Activities Subscale Scores, % of improvement from Oral Ibuprofen [1, 4]: −10.9%
WOMAC Difficulty Performing Daily Activities Subscale Scores, % of improvement from Placebo [1, 4]: −14.2%
WOMAC Difficulty Performing Daily Activities Subscale Scores, % of improvement from baseline [1, 4]: −43.9%
WOMAC Difficulty Performing Daily Activities Subscale Scores, Changes from Baseline (LS Mean) [1, 4]: −26.4 mm
WOMAC Difficulty Performing Daily Activities Subscale Scores, Different from oral ibuprofen (LS Mean) [1, 4]: −4.8 mm
WOMAC Difficulty Performing Daily Activities Subscale Scores, Different from placebo (LS Mean) [1, 4]: −8.3 mm
WOMAC Difficulty Performing Daily Activities Subscale Scores, Week 12 (LS Mean) [1, 4]: 33.8 mm
WOMAC Difficulty Performing Daily Activities Subscale Scores, % of improvement from Oral Ibuprofen [1, 5]: −12.5%
WOMAC Difficulty Performing Daily Activities Subscale Scores, % of improvement from Placebo [1, 5]: −15.9%
WOMAC Difficulty Performing Daily Activities Subscale Scores, % of improvement from baseline [1, 5]: −45.6%
WOMAC Difficulty Performing Daily Activities Subscale Scores, Changes from Baseline (LS Mean) [1, 5]: −28.1 mm
WOMAC Difficulty Performing Daily Activities Subscale Scores, Different from oral ibuprofen (LS Mean) [1, 5]: −6.6 mm
WOMAC Difficulty Performing Daily Activities Subscale Scores, Different from placebo (LS Mean) [1, 5]: −10.0 mm
WOMAC Difficulty Performing Daily Activities Subscale Scores, Week 12 (LS Mean) [1, 5]: 33.4 mm
WOMAC Difficulty Performing Daily Activities Subscale Scores, % of improvement from Oral Ibuprofen [1, 6]: −25.2%
WOMAC Difficulty Performing Daily Activities Subscale Scores, % of improvement from Placebo [1, 6]: −28.5%
WOMAC Difficulty Performing Daily Activities Subscale Scores, % of improvement from baseline [1, 6]: −58.2%
WOMAC Difficulty Performing Daily Activities Subscale Scores, Changes from Baseline (LS Mean) [1, 6]: −37.2 mm
WOMAC Difficulty Performing Daily Activities Subscale Scores, Different from oral ibuprofen (LS Mean) [1, 6]: −15.6 mm
WOMAC Difficulty Performing Daily Activities Subscale Scores, Different from placebo (LS Mean) [1, 6]: −19.1 mm
WOMAC Difficulty Performing Daily Activities Subscale Scores, Week 12 (LS Mean) [1, 6]: 26.7 mm
WOMAC Difficulty Performing Daily Activities Subscale Scores, % of improvement from Oral Ibuprofen [1, 7]: −1.3%
WOMAC Difficulty Performing Daily Activities Subscale Scores, % of improvement from Placebo [1, 7]: −5.6%
WOMAC Difficulty Performing Daily Activities Subscale Scores, % of improvement from baseline [1, 7]: −42.8%
WOMAC Difficulty Performing Daily Activities Subscale Scores, Changes from Baseline (LS Mean) [1, 7]: −25.4 mm
WOMAC Difficulty Performing Daily Activities Subscale Scores, Week 12 (LS Mean) [1, 7]: 33.9 mm
WOMAC Difficulty Performing Daily Activities Subscale Scores, % of improvement from Oral Ibuprofen [1, 8]: −4.6%
WOMAC Difficulty Performing Daily Activities Subscale Scores, % of improvement from Placebo [1, 8]: −8.9%
WOMAC Difficulty Performing Daily Activities Subscale Scores, % of improvement from baseline [1, 8]: −46.1%
WOMAC Difficulty Performing Daily Activities Subscale Scores, Changes from Baseline (LS Mean) [1, 8]: −27.9 mm
WOMAC Difficulty Performing Daily Activities Subscale Scores, Different from oral ibuprofen (LS Mean) [1, 8]: −2.7 mm
WOMAC Difficulty Performing Daily Activities Subscale Scores, Different from placebo (LS Mean) [1, 8]: −6.0 mm
WOMAC Difficulty Performing Daily Activities Subscale Scores, Week 12 (LS Mean) [1, 8]: 32.6 mm
WOMAC Difficulty Performing Daily Activities Subscale Scores, % of improvement from Oral Ibuprofen [1, 9]: −11.0%
WOMAC Difficulty Performing Daily Activities Subscale Scores, % of improvement from Placebo [1, 9]: −15.3%
WOMAC Difficulty Performing Daily Activities Subscale Scores, % of improvement from baseline [1, 9]: −52.5%
WOMAC Difficulty Performing Daily Activities Subscale Scores, Changes from Baseline (LS Mean) [1, 9]: −31.4 mm
WOMAC Difficulty Performing Daily Activities Subscale Scores, Different from placebo (LS Mean) [1, 9]: −9.5 mm
WOMAC Difficulty Performing Daily Activities Subscale Scores, Week 12 (LS Mean) [1, 9]: 28.3 mm
SPA, difference from oral ibuprofen ([2]; 17.5 mg/knee BID, Week 12): −14.1 mm
SPA, difference from placebo ([2]; 17.5 mg/knee BID, Week 12): −21.0 mm
Subject’s pain Assessment Scores, Baseline (LS Mean) ([2]; 4.375 mg/knee BID (n = 23)): 59.7 mm
Subject’s pain Assessment Scores, Baseline (LS Mean) ([2]; 8.75 mg/knee BID (n = 24)): 63.5 mm
Subject’s pain Assessment Scores, Baseline (LS Mean) ([2]; 17.5 mg/knee BID (n = 19)): 68.6 mm
Subject’s pain Assessment Scores, % of improvement from Oral Ibuprofen [2, 10]: −2.3%
Subject’s pain Assessment Scores, % of improvement from baseline [2, 10]: −38.5%
Subject’s pain Assessment Scores, % of improvement from placebo [2, 10]: −9.3%
Subject’s pain Assessment Scores, Changes from Baseline (LS Mean) [2, 10]: −23.0 mm
Subject’s pain Assessment Scores, Different from oral ibuprofen (LS Mean) [2, 10]: 2.8 mm
Subject’s pain Assessment Scores, Different from placebo (LS Mean) [2, 10]: −4.0 mm
Subject’s pain Assessment Scores, Week 12 (LS Mean) [2, 10]: 36.7 mm
Subject’s pain Assessment Scores, % of improvement from Oral Ibuprofen [2, 11]: −10.4%
Subject’s pain Assessment Scores, % of improvement from baseline [2, 11]: −47.7%
Subject’s pain Assessment Scores, % of improvement from placebo [2, 11]: −18.5%
Subject’s pain Assessment Scores, Changes from Baseline (LS Mean) [2, 11]: −30.3 mm
